Reference: PMC7870638, “Toxicity of anticancer drugs in human placental tissue explants and trophoblast cell lines” (Archives of Toxicology, 2020)
Where two headings read alike, the source gives them in different places.

Legend:
[1] = test system: progesterone release in syncytialised BeWo cells; experiment: Steroidogenesis (progesterone release) in syncytialised BeWo cells; format: cell-based, human; details: 48 h; for progesterone release (in words): crizotinib 1 μM, paclitaxel 3 nM, cisplatin 100 μM, carboplatin 100 μM
Experimental: (§1) Two human choriocarcinoma-derived placental cell lines were used: JEG3 and BeWo (ATCC catalog numbers HTB-36 and CCL-98, respectively). JEG3 cells were cultured in DMEM and Bewo cells in Ham’s F-12 K medium, supplemented with 10% fetal calf serum and 1% penicillin and streptomycin under a humidified 5% CO2/95% air atmosphere at 37 °C. Cells were passaged (JEG3: 1:10 twice a week; BeWo: 1:3 once a week) after trypsinization with 0.05% Trypsin–EDTA when cells reached approximately 80% confluency. For BeWo cells, the medium was renewed 3 times a week. To create syncytialised BeWo cells, regular BeWo cells were treated with 50 μM forskolin (Sigma-Aldrich, St. Louis, MO, USA) in 0.1% DMSO, to initiate syncytialisation. As forskolin increases the intracellular cAMP levels, it activates protein kinase A after which syncytialisation and fusion of trophoblasts occurs (Orendi et al. [2010]).
For doxorubicin, only two concentrations were tested. Conditioned medium, containing the secreted hormones, was collected after 48 h exposure to the TKIs and cytostatic drugs and stored at − 80 °C until analysis. To eliminate the influence of the varying cell densities between the wells, total protein content in each well was measured. Cells were washed twice with Hank’s buffered Salt Solution (HBSS) and lysed with 50 μL 1 M sodium hydroxide (NaOH). Subsequently, 10 μL of the lysate was mixed with 190 μL of 5 times diluted dye reagent (Biorad protein assay). The absorbance was measured at 595 nm using a Biorad Multiwell Plate reader. The quantities of protein in the samples were determined via a calibration curve of bovine serum albumin.
(§2) Progesterone and estrone concentrations in culture medium were determined by LC–MS/MS analysis using an Acquity UPLC (Waters, Milford, MA, USA) equipped with a C18 UPLC column (Acquity UPLC BEH C18, 2.1 × 50 mm, Milford, MA, USA, Waters) coupled to a Xevo TQ-S (Waters) triple quadrupole mass spectrometer. Progesterone-D9 was used as internal standard and calibration curves were made in the matrix. To precipitate proteins, methanol containing the internal standard was added to culture medium samples in a ratio 3:1 (MeOH:medium). Following subsequent centrifugation (13,000g for 3 min), 1 μl of the clear supernatant was injected into the LC–MS to quantify progesterone and estrone. Solvent A consisted of 0.2 mM NH4F in water and solvent B consisted of 0.2 mM NH4F in Acetonitrile:Methanol in a ratio of 75:25%. Separation was performed at a flow rate of 350 µl/min under the following gradient conditions: 0 min 60% eluent A, 3.0 min 0% eluent A, 4 min 0% eluent A, 5 min 60% eluent A. The effluent from the UPLC was passed directly into the electrospray ion source. Positive electrospray ionization was achieved using nitrogen as a desolation gas with ionization voltage at 600 V. The source temperature was set at 500 °C and argon was used as collision gas. The following SRM transitions were used: m/z 315.10 (parent ion) to m/z 69.9 and m/z 108.9 (both product ions) for progesterone, m/z 269.0 (parent ion) to m/z 144.9 and 158.9 (product ions) for estrone, and m/z 324.2 (parent ion) to m/z 99.9 and m/z 112.9 (product ions) for the internal standard d9-progesterone. We also attempted to quantify estradiol and estriol levels in the culture medium of both explants and cells, but these were below the detection limit.

[2] = ref Gaver et al. [1988]; cited from earlier work
[3] = test system: placental villous explants; experiment: MTT assay in placental explants (tissue viability); format: cell-based, human; details: 72 h exposure, 1, 10 or 100 µM
Experimental: (§3) Term placentas, obtained from consenting women following uncomplicated pregnancies and delivered vaginally or by caesarean section, were used for all experiments. Approval of the Regional Committee on Research involving Human Subjects was obtained (File 2014-1397). Within 60 min after delivery, 1 cm^3 villous tissue samples were excised at random areas midway between the umbilical cord and distal edge of the placenta. To remove maternal blood, samples were carefully rinsed in sterile Dulbecco’s phosphate-buffered saline supplemented with calcium chloride and magnesium chloride (Sigma-Aldrich, St. Louis, MO, USA) which was kept at 37 °C. The villous tissue was cut into small pieces weighing approximately 5 mg, after which 4–6 pieces of tissue were cultured together in individual wells of a 6-well plate. The explants were cultured in 1.5 ml of RPMI-1640 culture medium (Gibco, USA) with 15% heat-inactivated fetal bovine serum, 1% penicillin streptomycin, 1% gentamicin, and 1% amphotericin B (Life Technologies, USA). Placental explant cultures were kept for 7 days at 37 °C in a humidified gas mixture of 5% CO2 and 95% air. The culture medium was renewed every 24 h.
(§4) Treatment with TKIs or cytostatic drugs was started at day four of culture to allow for the syncytiotrophoblasts to regenerate (Siman et al. [2001]). Explants were then incubated for 72 h with 1, 10 or 100 µM of all TKIs or cytostatic drugs mentioned above. […] Culture medium was replaced every 24 h with new medium containing the original concentration of the drug. Supernatant was collected each day and stored at − 20 °C for hormone quantification.
(§5) To evaluate tissue and cell viability, after 72 h of drug exposure, tissue explants were incubated for 4 h at 37 °C with 1 mM 3-(4,5-dimethylthiazol-2-yl)-[…] (MTT) in RPMI. After incubation, the medium was removed, the tissue in each well was weighed, and the explants were subsequently placed in 500 µL DMSO for 10 min to dissolve the formazan formed. After 10 min, the DMSO was transferred to a 96-well plate and absorbance was measured at 540 nm using a Biorad Multiwell Plate reader.
(§6) Construction of graphs and data analysis were performed using Graphpad Prism version 8.4.2. MTT conversion and progesterone and estrone release in placental explants were normalized to tissue wet weight. To compare the effects on tissue viability and cell viability, the data were normalized to control conditions and mean differences were tested using an unpaired t test, a one-way ANOVA, or a two-way repeated measures ANOVA. The change in progesterone release rate as compared to the baseline (at 0 h) was calculated for each well separately, after which data were normalized to control conditions. One-way ANOVA was used to assess effects at the 72 h time point only. The Bonferroni post hoc test was applied to compare treatment conditions with controls. Data are described as mean ± SD in Figs. 2 and 3 and as mean ± SEM in all other figures where comparisons of means between groups were made. The mean and SD or SEM were calculated from all individual results (three experiments performed in duplicate or triplicate wells, n = 6 or n = 9).

[4] = test system: progesterone and estrone release in placental explants; experiment: Steroid (progesterone, estrone) release in placental explants, LC-MS/MS of culture medium; format: cell-based, human; details: placental explants; for progesterone release relative to control (in words): 100 µM, 72 h exposure; for reduction in progesterone release (in words): 10 and 100 µM gefitinib, 100 μM imatinib, effects over time (Fig. S2A)
Experimental: as §3
Treatment with TKIs or cytostatic drugs was started at day four of culture to allow for the syncytiotrophoblasts to regenerate (Siman et al. [2001]). Explants were then incubated for 72 h with 1, 10 or 100 µM of all TKIs or cytostatic drugs mentioned above. […] For cisplatin and carboplatin, culture medium was used as a solvent. Culture medium was replaced every 24 h with new medium containing the original concentration of the drug. Supernatant was collected each day and stored at − 20 °C for hormone quantification.
as §2
Construction of graphs and data analysis were performed using Graphpad Prism version 8.4.2. MTT conversion and progesterone and estrone release in placental explants were normalized to tissue wet weight. To compare the effects on tissue viability and cell viability, the data were normalized to control conditions and mean differences were tested using an unpaired t test, a one-way ANOVA, or a two-way repeated measures ANOVA. […]

[5] = test system: progesterone release in BeWo cells; experiment: Progesterone release in BeWo cells in control conditions (forskolin-induced syncytialisation); format: cell-based; details: Homo sapiens, 48 h, read-out: progesterone production, % of control
Experimental: Two human choriocarcinoma-derived placental cell lines were used: JEG3 and BeWo (ATCC catalog numbers HTB-36 and CCL-98, respectively). JEG3 cells were cultured in DMEM and Bewo cells in Ham’s F-12 K medium, supplemented with 10% fetal calf serum and 1% penicillin and streptomycin under a humidified 5% CO2/95% air atmosphere at 37 °C. Cells were passaged (JEG3: 1:10 twice a week; BeWo: 1:3 once a week) after trypsinization with 0.05% Trypsin–EDTA when cells reached approximately 80% confluency. For BeWo cells, the medium was renewed 3 times a week. […]
For doxorubicin, only two concentrations were tested. […] To eliminate the influence of the varying cell densities between the wells, total protein content in each well was measured. […] The absorbance was measured at 595 nm using a Biorad Multiwell Plate reader. The quantities of protein in the samples were determined via a calibration curve of bovine serum albumin.
Progesterone and estrone concentrations in culture medium were determined by LC–MS/MS analysis using an Acquity UPLC (Waters, Milford, MA, USA) equipped with a C18 UPLC column (Acquity UPLC BEH C18, 2.1 × 50 mm, Milford, MA, USA, Waters) coupled to a Xevo TQ-S (Waters) triple quadrupole mass spectrometer. […] Following subsequent centrifugation (13,000g for 3 min), 1 μl of the clear supernatant was injected into the LC–MS to quantify progesterone and estrone. […]

[6] = test system: JEG-3, BeWo, and syncytialised BeWo cells; experiment: MTT assay, cell viability in all three trophoblast cell types; format: cell-based, human; details: JEG-3 or BeWo cells, 50 μM, 48 h incubation
Experimental: as §1
The cells were seeded in 96-well culture plates at a cell density of 1 × 10^4 cells/well and cultured for 24 h at 37 °C in a humidified atmosphere with 5% CO2 to allow for attachment. Subsequently, the cells were exposed to the TKIs and cytostatic drugs in concentrations ranging from 100 pM to 100 µM (triplicate). […] This is a minimum percentage DMSO, but required as cells required co-incubation with forskolin to syncytialise. Crizotinib 100 μM was used as positive control. After attachment, cells were incubated with the compounds for 48 h, after which the medium was removed and the cells were exposed to […] diluted in medium. After 3 h of incubation with MTT, the formazan crystals formed were solubilized in 50 μL DMSO. The absorbance of formazan was measured at 540 nm by a Biorad Multiwell Plate reader.

[7] = MTT assay in placental explants (tissue viability); format: cell-based, human; details: female, human, term placental villous tissue explants, 100 µM, 72 h exposure, mean ± SEM, read-out: tissue viability, % of control
Experimental: as §3, §4, §5, §6

syncytialised BeWo cells = format: cell-based, human
Experimental: The cells were seeded in 96-well culture plates at a cell density of 1 × 10^4 cells/well and cultured for 24 h at 37 °C in a humidified atmosphere with 5% CO2 to allow for attachment. Subsequently, the cells were exposed to the TKIs and cytostatic drugs in concentrations ranging from 100 pM to 100 µM (triplicate). […] This is a minimum percentage DMSO, but required as cells required co-incubation with forskolin to syncytialise. Crizotinib 100 μM was used as positive control. […] The absorbance of formazan was measured at 540 nm by a Biorad Multiwell Plate reader.

[8] = 50 µM, 24 h, 48 h and 72 h exposure starting at day 4

## N.N.O=C([O-])C1(C(=O)[O-])CCC1.[Pt+2] [carboplatin]
[1]; not statistically significant
  progesterone release (in words): slight induction of progesterone release
[2]
  plasma concentration (may be as high as): ≤ 100 µM

## N.N.[Cl][Pt][Cl] [cisplatin]
[1]; not statistically significant
  progesterone release (in words): slight induction of progesterone release

## C[C@@H](Oc1cc(-c2cnn(C3CCNCC3)c2)cnc1N)c1c(Cl)ccc(F)c1Cl [crizotinib, Crizotinib]
[3]
  effect on tissue viability (in words): fully inhibited tissue viability
[4]
  progesterone release relative to control (in words): statistically significant reduction in progesterone release
[1]; not statistically significant
  progesterone release (in words): slight induction of progesterone release

## C=C[C@@]1(C)CC(=O)[C@]2(O)[C@@]3(C)[C@@H](O)CCC(C)(C)[C@@H]3[C@H](O)[C@H](OC(C)=O)[C@@]2(C)O1 [forskolin]
[5]; Forskolin 50 μM in 0.1% DMSO
  activity at 50 µM: 370 ± 50%
[5]; Forskolin 50 μM in 0.5% DMSO
  activity at 50 µM: 215 ± 12%
[4]; [8]
  estrone release (in words): significant induction in estrone release
  progesterone release (in words): not progesterone release
[6]
  effect on cell viability (in words): did not alter cell viability

## COc1cc2ncnc(Nc3ccc(F)c(Cl)c3)c2cc1OCCCN1CCOCC1 [gefitinib]
[7]
  viability at 72 h, 100 µM: 24 ± 4%
[4]
  reduction in progesterone release (in words): only statistically significant if effects over time were analyzed

## Cc1ccc(NC(=O)c2ccc(CN3CCN(C)CC3)cc2)cc1Nc1nccc(-c2cccnc2)n1 [imatinib, Imatinib]
[4]
  reduction in progesterone release (in words): only statistically significant if effects over time were analyzed
[1]; Homo sapiens, 10 µM, not statistically significant, read-out: progesterone release, % of control
  activity at 10 µM: 76 ± 9%

## CCN(CC)CCNC(=O)c1c(C)[nH]c(/C=C2\C(=O)Nc3ccc(F)cc32)c1C [sunitinib, sunitinib malate]
[3]
  effect on tissue viability (in words): fully inhibited tissue viability
Syncytialised BeWo cells
  cytotoxicity in syncytialised BeWo cells compared to undifferentiated BeWo and JEG3 cells (in words): inhibited cell viability at multiple concentrations to a lesser extent in syncytialised BeWo cells
[4]
  progesterone release relative to control (in words): statistically significant reduction in progesterone release
[1]; Homo sapiens, 1 µM, P < 0.05, read-out: progesterone release, % of control
  activity at 1 µM: 76 ± 6%
[1]; Homo sapiens, 3 µM, P < 0.001, read-out: progesterone release, % of control
  activity at 3 µM: 50 ± 4%
